Data: US5202348A, “Thiarubrine antifungal agents” (The University of British Columbia, priority 1990, dated 1993)
Converted amounts (≈) assume the structure as drawn. Where two headings read alike, the source gives them in different places.

Key:
WEHI-3 = assay: Growth inhibition of WEHI-3 during 24 hours exposure; assay type: cell-based, Mouse; conditions: Mus musculus, read-out: Concentration causing 50% growth inhibition
Procedure: (§1) WEHl3 = Mouse myelomonocyte
(§2) Doses inhibiting growth in 50% were estimated by plotting concentration o
(§3) a logarithmic scale and percent of growth inhibition for 24 hours exposur
(§4) on a probability scale.

[1] = as above; assay type: cell-based, Mouse; conditions: mouse, wehi-3 cells; Table 2; read-out: Toxicity Index, LC50 WEHI-3 / LC50 C. albicans
Procedure: as §1, §2, §3, §4

[2] = tested on: murine cytomegalovirus and Sindbis virus; conditions: phototoxic activity; cited from earlier work
bacteriophage M13 = conditions: cited from earlier work
Sindbis virus [3] = conditions: only in presence of UV-A radiation; cited from earlier work
bacteriophage T4 = conditions: in UV-A only; cited from earlier work
Coenorhabditis elogans = conditions: cited from earlier work
Aspergillus fumigatus [4] = assay: Sensitivity of Aspergillus fumigatus, agar diffusion method; assay type: cell-based; conditions: read-out: Zone of Growth Inhibition
Text: Results were obtained by agar diffusion method. Disc diameter - 6 mm. -* = no zone over disc diameter.

L1210 = assay: Growth inhibition of L1210 during 24 hours exposure; assay type: cell-based, Mouse; conditions: Mus musculus, read-out: Concentration causing 50% growth inhibition
Procedure: (§5) L1210 = Mouse lymphocytic leukemia
as §2, §3, §4

[5] = as above; assay type: cell-based, Mouse; conditions: mouse, l1210 cells; Table 2; read-out: Toxicity Index, LC50 L1210 / C. albicans
Procedure: as §5, §2, §3, §4

P815 mastocytoma = assay: LC50 (24 hrs.), doses required to inhibit growth in 50%, different method; assay type: cell-based; conditions: Mus musculus, P815, 24 h, read-out: LC50 (24 hrs.), dose required to inhibit growth in 50%
P. aeruginosa [6] = assay: Growth inhibition of P. aeruginosa during 24 hours exposure; assay type: cell-based, Pseudomonas aeruginosa; conditions: Pseudomonas aeruginosa; for IC50: read-out: Minimal concentration causing 50% growth inhibition
Procedure: as §2, §3, §4

mouse cells = conditions: cited from earlier work
Aspergillus = assay: Anti-Aspergillus activity (summary); assay type: cell-based; conditions: Table 14;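 also: Letter grades where Y means active and y means less active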
[7] = Growth inhibition of P815 mastocytoma during 24 hours exposure; assay type: cell-based, Mouse; conditions: mouse, p815 cells
Procedure: (§6) P815 = Mouse mastocytoma […]
as §3, §4

P815 = assay: as above; assay type: cell-based, Mouse; conditions: for IC50 / IC100: Mus musculus; for IC100: read-out: Minimal concentration causing 100% growth inhibition
Procedure: as §6, §3, §4

Hycobacteria sp. = conditions: cited from earlier work
C. albicans [8] = assay: Growth inhibition of C. albicans during 24 hours exposure; assay type: cell-based, Candida albicans; conditions: Candida albicans, read-out: Minimal concentration causing 100% growth inhibition
Escherichia coli = conditions: cited from earlier work
Bacillus subtilis = conditions: cited from earlier work
E. coli [9] = assay: Growth inhibition of E. coli during 24 hours exposure; assay type: cell-based, Escherichia coli; conditions: Escherichia coli, read-out: Minimal concentration causing 50% growth inhibition
Procedure: as §2, §3, §4

C. albicans [10] = assay: Growth inhibition of C. albicans during 24 hours exposure; assay type: cell-based, Candida albicans; conditions: Candida albicans
Procedure: as §2, §3, §4

bacteria = assay: Anti-bacterial activity (summary); assay type: cell-based; conditions: Table 14
Aspergillus fumigatus [11] = conditions: concentrations comparable to those of amphotericin B; cited from earlier work
Candida = assay: Anti-Candida activity (summary); assay type: cell-based; conditions: Table 14;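 also: Letter grades where Y means active and y means less active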
Candida albicans = conditions: concentrations comparable to those of amphotericin B; cited from earlier work
murine cytomegalovirus [12] = conditions: only in presence of UV-A radiation; cited from earlier work
E. coli [13] = assay: Growth inhibition of E. coli during 24 hours exposure; assay type: cell-based, Escherichia coli; conditions: Escherichia coli, read-out: Minimal concentration causing 100% growth inhibition
C. albicans [14] = assay: LC50 (24 hrs.), doses required to inhibit growth in 50%, different method; assay type: cell-based, Candida albicans; conditions: for IC50: Candida albicans, read-out: LC50 (24 hrs.), dose required to inhibit growth in 50%
Text: Doses Required to Inhibit Growth of C. albicans
in 50% During 24 hrs. (ng/ml)

3T3 = assay: Growth inhibition of 3T3 during 24 hours exposure; assay type: cell-based, Mouse; conditions: Mus musculus, read-out: Concentration causing 50% growth inhibition
Procedure: (§7) 3T3 = Mouse fibroblasts
as §2, §3, §4

[15] = Growth inhibition of 3T3 during 24 hours exposure; assay type: cell-based, Mouse; conditions: mouse, 3t3 cells; Table 2; read-out: Toxicity Index, LC50 3T3 / LC50 C. albicans
Procedure: as §7, §2, §3, §4

P. aeruginosa [16] = assay: Growth inhibition of P. aeruginosa during 24 hours exposure; assay type: cell-based, Pseudomonas aeruginosa; conditions: Pseudomonas aeruginosa, Table 3, read-out: Minimal concentration causing 100% growth inhibition
murine cytomegalovirus [17] = conditions: only in presence of long wave ultraviolet radiation; cited from earlier work
Sindbis virus [18] = conditions: only in presence of long wave ultraviolet radiation; cited from earlier work
[19] = tested on: above organisms, as well as CHO cells; conditions: UV-A light required; cited from earlier work
[20] = 100% growth inhibition, Table 3, read-out: Ratio of minimal concentration causing 100% growth inhibition, P815 line vs C. albicans
[21] = Table 2, read-out: Toxicity Index, LC50 P815 / LC50 C. albicans

C=CC#CC#CC1=CC=C(C#CC)SS1 [Thiarubrine A, 3 - (1- -propynyl) 6 (5-hexen-3-yn-1-ynyl)1,2-dithiacyclohexa-3,5-diene]
IC50 (WEHI-3; WEHI-3, 24 h): 0.027 µg/mL (≈ 0.118 µM)
selectivity ratio at 24 h [1]: 1
Order of potency [2]: alpha-terthienyl thiarubrine-A > phenylheptatriyne > ACBP-thiophene > thiophene-A
Effect on bacteriophage (bacteriophage M13): completely unaffected
Sensitivity of virus (Sindbis virus [3]): extremely sensitive
Effect on bacteriophage (bacteriophage T4): slightly affected
Cytotoxic activity (Coenorhabditis elogans): cytotoxic activity
zone of inhibition at 0.01 µg/disc (Aspergillus fumigatus [4]): 8 mm
zone of inhibition at 0.1 µg/disc (Aspergillus fumigatus [4]): 19 mm
zone of inhibition at 1 µg/disc (Aspergillus fumigatus [4]): 27 mm
zone of inhibition at 10 µg/disc (Aspergillus fumigatus [4]): 27 mm
IC50 (L1210; L1210, 24 h): 0.035 µg/mL (≈ 0.153 µM)
selectivity ratio at 24 h [5]: 1
IC50 (P815 mastocytoma): 0.081 µg/mL (≈ 0.355 µM)
IC50 (P. aeruginosa [6]; 24 h): 0.68 µg/mL (≈ 2.98 µM)
MIC (P. aeruginosa [6]; 24 h, read-out: Minimal concentration causing 100% growth inhibition): 2.5 µg/mL (≈ 10.9 µM)
Sensitivity of mouse cells (mouse cells; in presence of UV-A): moderately sensitive
Sensitivity of mouse cells (mouse cells; in the dark): somewhat less sensitive
Anti-Aspergillus (Aspergillus): Y
selectivity ratio at 24 h [7, 20]: ~4
selectivity ratio at 24 h [7, 21]: 1
Ratio of concentration needed to inhibit growth in 50%, P815 vs C. albicans (P815; 50% growth inhibition, Table 4): the same
IC50 (P815; P815, 24 h, read-out: Concentration causing 50% growth inhibition): 0.035 µg/mL (≈ 0.153 µM)
IC50 (P815; P815, 24 h, read-out: Minimal concentration causing 50% growth inhibition): 0.035 µg/mL (≈ 0.153 µM)
IC100 (P815; P815, 24 h): 0.625 µg/mL
Cytotoxic activity (Hycobacteria sp.): cytotoxic activity
MIC (C. albicans [8]; 24 h): 0.16 µg/mL (≈ 0.701 µM)
Cytotoxic activity (Escherichia coli): cytotoxic activity
Cytotoxic activity (Bacillus subtilis): cytotoxic activity
IC50 (E. coli [9]; 24 h): 0.18 µg/mL (≈ 0.788 µM)
IC50 (C. albicans [10]; 24 h, read-out: Concentration causing 50% growth inhibition): 0.028 µg/mL (≈ 0.123 µM)
IC50 (C. albicans [10]; 24 h, read-out: Minimal concentration causing 50% growth inhibition): 0.028 µg/mL (≈ 0.123 µM)
Anti-bacterial (bacteria): Y
Antifungal activity (Aspergillus fumigatus [11]): strong antifungal activity
Anti-Candida (Candida): Y
Antifungal activity (Candida albicans): strong antifungal activity
Sensitivity of virus (murine cytomegalovirus [12]): extremely sensitive
MIC (E. coli [13]; 24 h): 0.625 µg/mL (≈ 2.74 µM)
IC50 (C. albicans [14]; 24 h): 0.04 µg/mL (≈ 0.175 µM)
IC50 (3T3; NIH3T3, 24 h): 0.45 µg/mL (≈ 1.97 µM)
selectivity ratio at 24 h [15]: 12

CC#CC1=CC=C(C#CC#CC(O)CO)SS1 (stereo not drawn) [Thiarubrine E]
IC50 (WEHI-3; WEHI-3, 24 hours exposure, Table 1): 0.04 µg/mL (≈ 0.152 µM)
selectivity ratio at 24 h [1]: 28
zone of inhibition at 0.01 µg/disc (Aspergillus fumigatus [4]; 10 ng/disc, disc diameter 6 mm): 17 mm
zone of inhibition at 0.1 µg/disc (Aspergillus fumigatus [4]; 100 ng/disc, disc diameter 6 mm): 36 mm
zone of inhibition at 1 µg/disc (Aspergillus fumigatus [4]; 1,000 ng/disc, disc diameter 6 mm): 50 mm
zone of inhibition at 10 µg/disc (Aspergillus fumigatus [4]; 10,000 ng/disc, disc diameter 6 mm): 50 mm
IC50 (L1210; L1210, 24 hours exposure, Table 1): 0.027 µg/mL (≈ 0.103 µM)
selectivity ratio at 24 h [5]: 19
IC50 (P815 mastocytoma): 0.028 µg/mL (≈ 0.107 µM)
IC50 (P. aeruginosa [6]; 24 hours exposure, Table 4): 0.28 µg/mL (≈ 1.07 µM)
Anti-Aspergillus (Aspergillus): Y
selectivity ratio at 24 h ([7]; 50% growth inhibition, Table 4, read-out: Ratio of concentration needed to inhibit growth in 50%, P815 vs C. albicans): 17
selectivity ratio at 24 h [7, 20]: 65
selectivity ratio at 24 h [7, 21]: 17
IC50 (P815; P815, 24 hours exposure, Table 1, read-out: Concentration causing 50% growth inhibition): 0.024 µg/mL (≈ 0.0915 µM)
IC100 (P815; P815, 24 hours exposure, Table 3): 0.312 µg/mL
IC50 (P815; P815, 24 hours exposure, Table 4, read-out: Minimal concentration causing 50% growth inhibition): 0.024 µg/mL (≈ 0.0915 µM)
MIC (P. aeruginosa [16]): 0.625 µg/mL (≈ 2.38 µM)
MIC (C. albicans [8]; 24 hours exposure, Table 3): 0.0048 µg/mL (≈ 0.0183 µM)
IC50 (E. coli [9]; 24 hours exposure, Table 4): 0.015 µg/mL (≈ 0.0572 µM)
IC50 (C. albicans [10]; 24 hours exposure, Table 1, read-out: Concentration causing 50% growth inhibition): 0.0014 µg/mL (≈ 0.00534 µM)
IC50 (C. albicans [10]; 24 hours exposure, Table 4, read-out: Minimal concentration causing 50% growth inhibition): 0.0014 µg/mL (≈ 0.00534 µM)
Anti-bacterial (bacteria): Y
Anti-Candida (Candida): Y
MIC (E. coli [13]; 24 hours exposure, Table 3): 0.019 µg/mL (≈ 0.0724 µM)
Inhibition of growth of Candida albicans (C. albicans [14]): nanogram/ml range
IC50 (C. albicans [14]; 24 hrs., Table 7): 0.006 µg/mL (≈ 0.0229 µM)
IC50 (3T3; NIH3T3, 24 hours exposure, Table 1): 0.12 µg/mL (≈ 0.457 µM)
selectivity ratio at 24 h [15]: 86

c1csc(-c2ccc(-c3cccs3)s2)c1 [alpha-terthienyl]
Order of potency [2]: alpha-terthienyl thiarubrine-A > phenylheptatriyne > ACBP-thiophene > thiophene-A
Toxicity to virus (murine cytomegalovirus [17]): extremely toxic
Toxicity to virus (Sindbis virus [18]): extremely toxic

C=CC#CC#Cc1ccc(C#CC)s1 [thiophene A]
Order of potency [2]: alpha-terthienyl thiarubrine-A > phenylheptatriyne > ACBP-thiophene > thiophene-A
Phototoxicity [19]: phototoxic, requiring UV-A light for biological activity
